Consider three compounds from paper PMC9865629, “Rhanteriol, a New Rhanterium suaveolens Desf. Lignan with Pharmacological Potential as an Inhibitor of Enzymes Involved in Neurodegeneration and Type 2 Diabetes” (Plants, 2023).

In series [1] the test system is BuChE. The conditions noted are these: read-out: IC50 (BuChE, by context); lignans from Citharexylum spinosum L.; cited from earlier work.
The target in series [2] is α-glucosidase. Kind of series: α-glucosidase inhibition assay. Type of series: biochemical. Particulars: pure compound and standard. On the procedure: Results are expressed as IC50 values (mg/mL for extracts and µM for pure compound), using GraphPad Prism 8 Software (San Diego, CA, USA). The assay was carried out in triplicate.
Series [3] addresses acetylcholinesterase (AChE) (Homo sapiens, UniProt P22303). Kind of series: biochemical. Particulars: read-out: % of inhibition against AChE. On the procedure:
(§1) The inhibition of AChE and BuChE was evaluated using Ellman’s method, as previously reported. Briefly, extracts and pure compound were incubated with AChE or BuChE (25 µL, 0.05 U/mL), DTNB (125 µL, 3 mM) and buffer B (25 µL, 50 mM Tris–HCl, pH 8 containing 0.1% BSA) for 10 min at 37 °C. Then, the substrate of the reaction, the acetylthiocholine iodide or butyrylthiocholine chloride (25 µL, 5 mM), was added, and the absorbance was measured at 405 nm, after 10 min. Galanthamine was used as the standard in both assays. Results are expressed as IC50 values (mg/mL for extracts and µM for pure compound), using GraphPad Prism 8 Software (San Diego, CA, USA). The test was carried out in triplicate.

The target in series [4] is butyrylcholinesterase (BuChE) (Homo sapiens, UniProt P06276). Kind of series: biochemical. How it is done: as §1
In series [5] the test system is HeLa (cervical carcinoma) cells. Kind of series: Cell viability MTT assay, HeLa. Type of series: cell-based. The conditions noted are these: 100, 50, 25 µM for 48 h, data not shown. How it is done: (§2) HeLa (cervical carcinoma), Jurkat (T-cell leukemia), and U937 (monocytic leukemia) cell lines were obtained from the American Type Cell Culture (ATCC) (Rockville, MD, USA). Cells were maintained in DMEM (HeLa) or RPMI 1640 (Jurkat and U937), supplemented with 10% FBS, 100 mg/L streptomycin and penicillin 100 IU/mL at 37 °C in a humidified atmosphere of 5% CO2. To ensure logarithmic growth, cells were subcultured every two days. Stock solutions (50 mM) of purified compound in DMSO were stored in the dark at 4 °C. Appropriate dilutions were prepared in a culture medium immediately prior to use.
(§3) Cell viability was evaluated using a colorimetric assay based on an MTT ([3-(4,5-dimethylthiazol-2-yl)-2,5-diphenyltetrazolium bromide]) assay, in order to compare the effect of potentially cytotoxic substances with a control condition. Briefly, cells were plated in 96-well tissue culture plates (3.5 × 10^3 cells/well) and after 24 h, the medium was replaced with a fresh one alone or one containing serial dilutions of compound 1 (100, 50, 25 µM), and incubation was performed for 48 h. […] The optical density (OD) of each well was measured with a microplate spectrophotometer (Multiskan Spectrum Thermo Electron Corporation reader, Thermo Fisher Scientific, Waltham, Massachusetts, United States) equipped with a 620 nm filter. Cell vitality was calculated as % vitality = 100 × (OD treated/OD DMSO).
(In general: Tetrazolium assays rely on reduction of a dye to a coloured formazan, in cell work by metabolically active cells.)

Series [6] has as its system U937 (monocytic leukemia) cells. Kind of series: Cell viability MTT assay, U937. The format is cell-based. Particulars: 100, 50, 25 µM for 48 h, data not shown. On the procedure:
as §2, §3

Series [7] concerns Jurkat (T-cell leukemia) cells. Kind of series: Cell viability MTT assay, Jurkat. The format is cell-based. The conditions noted are these: 100, 50, 25 µM for 48 h, data not shown. How it is done: as §2, with “use. […]” for “use.”
Cell viability was evaluated using a colorimetric assay based on an MTT ([3-(4,5-dimethylthiazol-2-yl)-2,5-diphenyltetrazolium bromide]) assay, in order to compare the effect of potentially cytotoxic substances with a control condition. […] The optical density (OD) of each well was measured with a microplate spectrophotometer (Multiskan Spectrum Thermo Electron Corporation reader, Thermo Fisher Scientific, Waltham, Massachusetts, United States) equipped with a 620 nm filter. Cell vitality was calculated as % vitality = 100 × (OD treated/OD DMSO).

In series [8] the test system is HaCaT epidermal keratinocytes. Kind of series: Cell viability MTT assay, HaCaT. Type of series: cell-based. Particulars: 100, 50, 25 µM for 48 h, data not shown. How it is done:
Epidermal keratinocytes (HaCaT) were cultured in Dulbecco’s Modified Eagle’s Medium containing 10% fetal bovine serum, supplemented with 100 U/mL each of penicillin and streptomycin, and 2 mM/L glutamine, and grown at 37 °C under 5% CO2 air humidified atmosphere. Human leukemia cell lines (Jurkat) were maintained in RPMI medium supplemented with 10% FBS, 2 mM l-glutamine, 100 U/mL penicillin, and […] at 37 °C, in 5% CO2 [26].
as §3, with “h. Staurosporin 0.2 µM was used as a positive control.” for “h.”

Sequence of acetylcholinesterase (AChE) (P22303 32-614, species assumed): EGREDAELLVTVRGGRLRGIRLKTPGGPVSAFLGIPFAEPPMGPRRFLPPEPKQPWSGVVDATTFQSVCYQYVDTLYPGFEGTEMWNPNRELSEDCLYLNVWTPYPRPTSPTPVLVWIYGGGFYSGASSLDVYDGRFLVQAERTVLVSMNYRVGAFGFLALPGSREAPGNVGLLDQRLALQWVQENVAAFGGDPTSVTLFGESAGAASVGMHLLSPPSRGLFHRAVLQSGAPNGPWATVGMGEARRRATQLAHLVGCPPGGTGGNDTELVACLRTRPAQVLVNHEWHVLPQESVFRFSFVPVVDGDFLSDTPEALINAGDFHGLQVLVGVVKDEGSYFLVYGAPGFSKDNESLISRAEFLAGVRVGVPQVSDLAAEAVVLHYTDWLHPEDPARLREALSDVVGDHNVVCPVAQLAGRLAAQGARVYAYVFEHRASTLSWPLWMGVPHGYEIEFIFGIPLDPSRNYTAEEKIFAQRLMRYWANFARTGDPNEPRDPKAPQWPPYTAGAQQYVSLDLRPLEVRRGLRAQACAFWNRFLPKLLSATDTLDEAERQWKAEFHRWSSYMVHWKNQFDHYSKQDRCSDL
Sequence of butyrylcholinesterase (BuChE) (P06276 29-602): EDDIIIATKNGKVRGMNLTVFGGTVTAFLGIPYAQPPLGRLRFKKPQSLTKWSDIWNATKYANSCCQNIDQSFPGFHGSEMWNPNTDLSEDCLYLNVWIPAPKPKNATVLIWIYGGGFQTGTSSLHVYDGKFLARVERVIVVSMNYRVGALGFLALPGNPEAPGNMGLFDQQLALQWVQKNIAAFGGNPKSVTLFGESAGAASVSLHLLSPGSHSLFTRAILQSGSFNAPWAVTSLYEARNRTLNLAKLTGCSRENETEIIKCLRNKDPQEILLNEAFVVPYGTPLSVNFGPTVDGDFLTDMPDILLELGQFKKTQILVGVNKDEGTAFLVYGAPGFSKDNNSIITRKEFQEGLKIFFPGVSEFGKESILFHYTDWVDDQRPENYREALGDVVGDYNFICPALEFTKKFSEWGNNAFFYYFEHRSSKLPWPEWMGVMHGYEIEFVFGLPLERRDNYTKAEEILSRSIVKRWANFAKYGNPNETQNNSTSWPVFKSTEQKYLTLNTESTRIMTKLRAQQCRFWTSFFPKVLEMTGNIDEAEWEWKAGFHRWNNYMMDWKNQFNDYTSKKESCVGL

The IC50 is the point on the concentration scale where inhibition reaches its midpoint. With plucheoside D2, in series [1], the half-maximal inhibitory concentration (IC50) was 71.3 ± 2.82 µM.

On to plucheoside D1, for which the IC50 in series [1] is 98.1 ± 2.72 µM.

One may read the inhibition as how much of the control response was suppressed. On to `COc1cc(C[C@@H]2CO[C@@H](c3ccc(O)c(OC)c3)[C@@H]2COC(=O)c2ccccc2)ccc1O` [Compound 1, 4-benzoic acid 4-(4-hydroxy-3-meethoxybenzyl)-2-(4-hydroxy-3-methoxyphenyl) tetrahydrofuran-3-ylmethyl ester], for which the IC50 in series [2] was found to be 26.8 ± 3.29 µM; in series [4], 10.41 ± 0.03 µM. In addition, the inhibition at 100 µM in series [3] is 21%. For the same compound, the “cytotoxicity (MTT)” value in series [5], in series [6], in series [7] and in series [8] was “not toxic” each time.
